Laboratory results as given in publication PMC8066426 (iScience, 2021).
One block for each compound: values may come before it.

Assays:
CorC (TpCorC) [1] = biological target: T1, CorC (TpCorC) (Thermus parvatiensis, UniProt A0A109QFA5); assay: competitive displacement of mant-ATP; format: binding
T1 sequence (A0A109QFA5 207-348): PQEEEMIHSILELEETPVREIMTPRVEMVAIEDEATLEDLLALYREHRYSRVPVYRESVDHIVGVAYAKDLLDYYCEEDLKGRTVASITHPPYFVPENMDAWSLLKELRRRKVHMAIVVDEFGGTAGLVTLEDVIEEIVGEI

CorC (TpCorC) [2] = biological target: T1, CorC (TpCorC); assay: FRET from endogenous Trp to bound mant fluorophore, saturation binding
[3] = biological target: ATP-binding site mutant of the TpCorC cross-linking construct (T106C/C282A/Y255A/T336I) (Thermus parvatiensis); assay: cross-linking
[4] = biological target: TpCorC inter-subunit cross-linking mutant (T106C/C282A) (Thermus parvatiensis); assay: cross-linking

IC50 (CorC (TpCorC) [1]): 0.57 ± 0.08 µM
Compound: Nc1ncnc2c1ncn2[C@@H]1O[C@H](COP(=O)(O)OP(=O)(O)OP(=O)(O)O)[C@@H](O)[C@H]1O [ATP]

Kd (CorC (TpCorC) [2]): 1.36 ± 0.1 µM
Compound: CNc1ccccc1C(=O)O[C@H]1[C@@H](O)[C@H](n2cnc3c(N)ncnc32)O[C@@H]1CO[P@@](=O)(O)O[P@](=O)(O)OP(=O)(O)O [mant-ATP, 2′(3′)-O-(N-methylanthraniloyl)adenosine 5′-triphosphate]

stoichiometry N [3]: 2
Compound: ATP-binding site mutant of the TpCorC cross-linking construct (T106C/C282A/Y255A/T336I) (natural protein)

stoichiometry N [4]: 2
Compound: TpCorC inter-subunit cross-linking mutant (T106C/C282A) (natural protein)
